Test results: patent US10597388B2, “Pyridazinone herbicides” (FMC CORPORATION, priority 2014, dated 2020)

Key:
Format in all cases: in vivo
[1] = test system: barnyardgrass (Echinochloa crus-galli); assay: Test A greenhouse herbicide test, pre- and postemergence
Summary of the method: (§1)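 Visual injury ratings, 0 (no effect) to 100 (complete control), versus untreated plants after roughly 10 d in a greenhouse. Compounds, formulated in a surfactant-containing non-phytotoxic solvent, were sprayed on loam–sand soil after sowing (pre) or on one- to two-leaf plants 2–10 cm tall (post).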

corn (Zea mays) = assay: as above; details: Postemergence; for Corn plant response rating: 0 is no effect, 100 is complete control
Summary of the method: as §1

[2] = test system: foxtail, giant (giant foxtail, Setaria faberii); assay: as above
Summary of the method: as §1

kochia (Kochia scoparia) = assay: as above
Summary of the method: as §1

[3] = test system: pigweed (Amaranthus retroflexus); assay: as above
Summary of the method: as §1

[4] = test system: ragweed (common ragweed, Ambrosia elatior); assay: as above
Summary of the method: as §1

[5] = test system: ryegrass, Italian (Italian ryegrass, Lolium multiflorum); assay: as above
Summary of the method: as §1

[6] = test system: wheat (Triticum aestivum); assay: as above; details: Postemergence; for Wheat plant response rating: 0 is no effect, 100 is complete control
Summary of the method: as §1

[7] = test system: blackgrass (Alopecurus myosuroides); assay: Test A greenhouse herbicide test, postemergence; details: for Blackgrass plant response rating: 0 is no effect, 100 is complete control
Summary of the method: (§2)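 Scores are visual injury ratings from 0 (no effect) to 100 (complete control) versus untreated plants, taken roughly 10 d after treatment in the greenhouse. Treatment was postemergence, on one- to two-leaf plants 2–10 cm high growing in a loam soil/sand mix.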

[8] = test system: galium (catchweed bedstraw, Galium aparine); assay: Test A greenhouse herbicide test, postemergence; details: for Galium plant response rating: 0 is no effect, 100 is complete control
Summary of the method: as §2

[9] = test system: barnyardgrass (Echinochloa crus-galli); assay: Test B flooded paddy test; details: 250 g ai/ha, Flood; visual rating on scale of 0 to 100 where 0 is no effect and 100 is complete control; 13 to 15 d after treatment
Summary of the method: (§3)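 Ratings use a 0-100 visual scale, where 100 is complete control, and compare treated plants with controls after 13 to 15 d of greenhouse growth. Compound went straight into paddy water kept 3 cm over the soil surface, applied to seedlings at the 2-leaf stage.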

[10] = test system: ducksalad (Heteranthera limosa); assay: Test B flooded paddy test; details: 250 g ai/ha, Flood; visual rating on scale of 0 to 100 where 0 is no effect and 100 is complete control; 13 to 15 d after treatment
Summary of the method: as §3

rice (Oryza sativa) = assay: Test B flooded paddy test; details: 250 g ai/ha, Flood; visual rating on scale of 0 to 100 where 0 is no effect and 100 is complete control; 13 to 15 d after treatment
Summary of the method: as §3

[11] = test system: sedge, umbrella (small-flower umbrella sedge, Cyperus difformis); assay: Test B flooded paddy test; details: 250 g ai/ha, Flood; visual rating on scale of 0 to 100 where 0 is no effect and 100 is complete control; 13 to 15 d after treatment
Summary of the method: as §3

[12] = Postemergence, 125 g ai/ha, 0 to 100 scale, 0 no effect, 100 complete control
[13] = Postemergence, 500 g ai/ha, visual rating after approx. 10 d, 0 to 100 scale (0 no effect, 100 complete control)
[14] = Preemergence, 125 g ai/ha, visual injury rating, 0 to 100 scale (0 no effect, 100 complete control), approx. 10 d
[15] = Preemergence, 500 g ai/ha, 0 to 100 scale where 0 is no effect and 100 is complete control
[16] = 125 g ai/ha, 0 to 100 scale, 0 no effect, 100 complete control
[17] = 500 g ai/ha, visual rating after approx. 10 d, 0 to 100 scale (0 no effect, 100 complete control)
[18] = Postemergence, 125 g ai/ha, 0 to 100 scale where 0 is no effect and 100 is complete control
[19] = Postemergence, 500 g ai/ha, 0 to 100 scale, 0 is no effect, 100 is complete control
[20] = Preemergence, 125 g ai/ha, 0 to 100 scale where 0 is no effect and 100 is complete control
[21] = 125 g ai/ha, 0 to 100 scale where 0 is no effect and 100 is complete control
[22] = Postemergence, 125 g ai/ha, visual rating after approx. 10 d, 0 to 100 scale (0 no effect, 100 complete control)
[23] = Preemergence, 500 g ai/ha, 0 to 100 scale, 0 no effect, 100 complete control
[24] = 125 g ai/ha, visual rating after approx. 10 d, 0 to 100 scale (0 no effect, 100 complete control)

`Cc1nn(Cc2ccccc2)c(=O)c(-c2cccc3ccccc23)c1O` [Compound 168] was tested, and the “Plant response rating, Barnyardgrass” value [1, 12] was 0, the “Plant response rating, Barnyardgrass” value [1, 13] was 40 and the “Plant response rating, Barnyardgrass” value [1, 14] was 0. The “Plant response rating, Barnyardgrass” value [1, 15] was 20, the “Plant response rating, Corn” value (corn (Zea mays); [16]) was 0 and the “Plant response rating, Corn” value (corn (Zea mays); [17]) was 20. For the same molecule, the “Plant response rating, Foxtail, Giant” value [2, 12] was 30, the “Plant response rating, Foxtail, Giant” value [2, 13] was 40 and the “Plant response rating, Foxtail, Giant” value [2, 14] was 0. For the same molecule, the “Plant response rating, Foxtail, Giant” value [2, 15] was 40, the “Plant response rating, Kochia” value (kochia (Kochia scoparia); [12]) was 20 and the “Plant response rating, Kochia” value (kochia (Kochia scoparia); [13]) was 20. The “Plant response rating, Kochia” value (kochia (Kochia scoparia); [14]) was 0, the “Plant response rating, Kochia” value (kochia (Kochia scoparia); [15]) was 0 and the “Plant response rating, Pigweed” value [3, 12] was 0. The “Plant response rating, Pigweed” value [3, 13] was 40, the “Plant response rating, Pigweed” value [3, 14] was 0 and the “Plant response rating, Pigweed” value [3, 15] was 0. The “Plant response rating, Ragweed” value [4, 12] was 0, the “Plant response rating, Ragweed” value [4, 13] was 0 and the “Plant response rating, Ragweed” value [4, 14] was 0. For the same molecule, the “Plant response rating, Ragweed” value [4, 15] was 0, the “Plant response rating, Ryegrass, Italian” value [5, 12] was 60 and the “Plant response rating, Ryegrass, Italian” value [5, 13] was 60. The “Plant response rating, Ryegrass, Italian” value [5, 14] was 0, the “Plant response rating, Ryegrass, Italian” value [5, 15] was 40 and the “Plant response rating, Wheat” value [6, 16] was 0. For the same molecule, the “Plant response rating, Wheat” value [6, 17] was 20, the “Plant response rating, Blackgrass” value [7, 16] was 20 and the “Plant response rating, Blackgrass” value [7, 17] was 30. For the same molecule, the “Plant response rating, Galium” value [8, 16] was 0, the “Plant response rating, Galium” value [8, 17] was 30 and the “Plant response rating, Barnyardgrass” value [9] was 0. For the same molecule, the “Plant response rating, Ducksalad” value [10] was 40, the “Plant response rating, Rice” value (rice (Oryza sativa)) was 0 and the “Plant response rating, Sedge, Umbrella” value [11] was 0.

For `COc1nn(C)c(=O)c(-c2c(C(F)F)ccc3ccccc23)c1O` [Compound 86], the “Plant response rating, Barnyardgrass” value [1, 18] was 30, the “Barnyardgrass plant response rating” value [1, 19] was 10 and the “Barnyardgrass plant response rating” value [1, 20] was 0. For the same molecule, the “Plant response rating, Barnyardgrass” value [1, 15] was 40, the “Plant response rating, Corn” value (corn (Zea mays); [21]) was 0 and the “Corn plant response rating” value (corn (Zea mays); 500 g ai/ha, 0 to 100 scale) was 0. The “Plant response rating, Foxtail, Giant” value [2, 18] was 50, the “Foxtail, Giant plant response rating” value [2, 19] was 70 and the “Foxtail, Giant plant response rating” value [2, 20] was 20. For the same molecule, the “Plant response rating, Foxtail, Giant” value [2, 15] was 70, the “Plant response rating, Kochia” value (kochia (Kochia scoparia); [18]) was 70 and the “Kochia plant response rating” value (kochia (Kochia scoparia); [19]) was 80. The “Kochia plant response rating” value (kochia (Kochia scoparia); [20]) was 0, the “Plant response rating, Kochia” value (kochia (Kochia scoparia); [15]) was 40 and the “Plant response rating, Pigweed” value [3, 18] was 90. The “Pigweed plant response rating” value [3, 19] was 90, the “Pigweed plant response rating” value [3, 20] was 80 and the “Plant response rating, Pigweed” value [3, 15] was 100. For the same molecule, the “Plant response rating, Ragweed” value [4, 18] was 80, the “Ragweed plant response rating” value [4, 19] was 80 and the “Ragweed plant response rating” value [4, 20] was 40. For the same molecule, the “Plant response rating, Ragweed” value [4, 15] was 90, the “Plant response rating, Ryegrass, Italian” value [5, 18] was 0 and the “Ryegrass, Italian plant response rating” value [5, 19] was 50. The “Ryegrass, Italian plant response rating” value [5, 20] was 0, the “Plant response rating, Ryegrass, Italian” value [5, 15] was 40 and the “Plant response rating, Wheat” value [6, 21] was 0. The “Wheat plant response rating” value ([6]; 500 g ai/ha, 0 to 100 scale) was 0, the “Plant response rating, Blackgrass” value [7, 21] was 10 and the “Blackgrass plant response rating” value ([7]; 500 g ai/ha, 0 to 100 scale) was 30. For the same molecule, the “Plant response rating, Galium” value [8, 21] was 90, the “Galium plant response rating” value ([8]; 500 g ai/ha, 0 to 100 scale) was 100 and the “Plant response rating, Barnyardgrass” value [9] was 0. For the same molecule, the “Plant response rating, Ducksalad” value [10] was 20, the “Plant response rating, Rice” value (rice (Oryza sativa)) was 15 and the “Plant response rating, Sedge, Umbrella” value [11] was 60.

In the case of `Cn1ncc(O)c(-c2ccc(F)c3ccccc23)c1=O` [Compound 24], the “Plant response rating, Barnyardgrass” value [1, 22] is reported as 40, the “Barnyardgrass plant response rating” value [1, 19] is reported as 50 and the “Barnyardgrass plant response rating” value [1, 20] is reported as 30. The “Plant response rating, Barnyardgrass” value [1, 23] was 60, the “Plant response rating, Corn” value (corn (Zea mays); [24]) was 0 and the “Corn plant response rating” value (corn (Zea mays); 500 g ai/ha, 0 to 100 scale) was 0. For the same molecule, the “Plant response rating, Foxtail, Giant” value [2, 22] was 10, the “Foxtail, Giant plant response rating” value [2, 19] was 60 and the “Foxtail, Giant plant response rating” value [2, 20] was 60. The “Plant response rating, Foxtail, Giant” value [2, 23] was 80, the “Plant response rating, Kochia” value (kochia (Kochia scoparia); [22]) was 70 and the “Kochia plant response rating” value (kochia (Kochia scoparia); [19]) was 80. For the same molecule, the “Kochia plant response rating” value (kochia (Kochia scoparia); [20]) was 30, the “Plant response rating, Kochia” value (kochia (Kochia scoparia); [23]) was 50 and the “Plant response rating, Pigweed” value [3, 22] was 70. The “Pigweed plant response rating” value [3, 19] was 90, the “Pigweed plant response rating” value [3, 20] was 70 and the “Plant response rating, Pigweed” value [3, 23] was 90. For the same molecule, the “Plant response rating, Ragweed” value [4, 22] was 30, the “Ragweed plant response rating” value [4, 19] was 60 and the “Ragweed plant response rating” value [4, 20] was 0. The “Plant response rating, Ragweed” value [4, 23] was 0, the “Plant response rating, Ryegrass, Italian” value [5, 18] was 70 and the “Ryegrass, Italian plant response rating” value [5, 19] was 90. The “Ryegrass, Italian plant response rating” value [5, 20] was 80, the “Plant response rating, Ryegrass, Italian” value [5, 23] was 80 and the “Plant response rating, Wheat” value [6, 21] was 30. For the same molecule, the “Wheat plant response rating” value ([6]; 500 g ai/ha, 0 to 100 scale) was 70, the “Plant response rating, Blackgrass” value [7, 24] was 30 and the “Blackgrass plant response rating” value ([7]; 500 g ai/ha, 0 to 100 scale) was 50. The “Plant response rating, Galium” value [8, 24] was 80, the “Galium plant response rating” value ([8]; 500 g ai/ha, 0 to 100 scale) was 100 and the “Plant response rating, Barnyardgrass” value [9] was 0. The “Plant response rating, Ducksalad” value [10] was 0, the “Plant response rating, Rice” value (rice (Oryza sativa)) was 0 and the “Plant response rating, Sedge, Umbrella” value [11] was 0.
